Data as given in ChEMBL document CHEMBL1140242, “Metabolism investigation leading to novel drug design: orally active prostacyclin mimetics. Part 4” (Bioorg Med Chem Lett, 2005).
Values belong to the molecule of their own block, whether it stands above or below them.

Key:
[1] = species: Homo sapiens; experiment: Inhibition of ADP-induced aggregation of human platelets; format: functional, organism-based
[2] = target: T1, Prostaglandin D2 receptor (Homo sapiens, UniProt Q13258); experiment: Inhibition of [3H]PGD-2 binding to human Prostanoid DP receptor
T1 sequence (Q13258 whole entry): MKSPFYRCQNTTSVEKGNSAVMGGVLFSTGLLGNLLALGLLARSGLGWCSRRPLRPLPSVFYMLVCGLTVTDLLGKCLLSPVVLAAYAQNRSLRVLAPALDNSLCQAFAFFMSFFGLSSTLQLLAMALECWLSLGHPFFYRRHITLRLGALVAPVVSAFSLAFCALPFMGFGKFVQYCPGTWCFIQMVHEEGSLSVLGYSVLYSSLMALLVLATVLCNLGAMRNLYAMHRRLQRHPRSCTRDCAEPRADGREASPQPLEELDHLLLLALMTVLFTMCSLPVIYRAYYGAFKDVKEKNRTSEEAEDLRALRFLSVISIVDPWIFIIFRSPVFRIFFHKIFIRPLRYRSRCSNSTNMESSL

[3] = target: Prostaglandin F2-alpha receptor (Homo sapiens, UniProt P43088); experiment: Inhibition of [3H]-PGF-2 binding to human Prostanoid FP receptor
Chain of Prostaglandin F2-alpha receptor (P43088 whole entry): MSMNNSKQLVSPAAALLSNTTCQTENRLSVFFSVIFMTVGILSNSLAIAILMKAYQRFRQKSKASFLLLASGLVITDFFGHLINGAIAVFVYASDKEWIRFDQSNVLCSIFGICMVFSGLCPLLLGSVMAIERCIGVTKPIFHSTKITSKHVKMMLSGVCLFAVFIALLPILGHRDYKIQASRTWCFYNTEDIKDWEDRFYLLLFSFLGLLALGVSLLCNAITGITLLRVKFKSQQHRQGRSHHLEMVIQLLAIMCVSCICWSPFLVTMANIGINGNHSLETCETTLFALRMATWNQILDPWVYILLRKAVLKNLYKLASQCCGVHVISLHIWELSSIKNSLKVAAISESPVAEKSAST

[4] = target: T2, Prostaglandin E2 receptor EP1 subtype (Homo sapiens, UniProt P34995); experiment: Inhibition of [3H]PGE-2 binding to Prostanoid EP1 receptor
T2 sequence (P34995 whole entry): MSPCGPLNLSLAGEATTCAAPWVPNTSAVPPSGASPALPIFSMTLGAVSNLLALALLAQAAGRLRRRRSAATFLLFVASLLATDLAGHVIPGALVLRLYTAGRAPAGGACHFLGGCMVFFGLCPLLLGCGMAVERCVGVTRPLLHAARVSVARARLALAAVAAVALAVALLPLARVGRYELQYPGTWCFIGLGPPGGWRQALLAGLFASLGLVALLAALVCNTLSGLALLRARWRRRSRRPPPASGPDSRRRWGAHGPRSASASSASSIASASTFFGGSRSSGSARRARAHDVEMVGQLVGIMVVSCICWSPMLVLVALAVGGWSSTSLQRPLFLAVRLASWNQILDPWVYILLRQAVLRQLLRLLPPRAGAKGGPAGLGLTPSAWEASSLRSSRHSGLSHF

[5] = target: Prostaglandin E2 receptor EP2 subtype (Homo sapiens, UniProt P43116); experiment: Inhibition of [3H]PGE-2 binding to Prostanoid EP2 receptor
Chain of Prostaglandin E2 receptor EP2 subtype (P43116 whole entry): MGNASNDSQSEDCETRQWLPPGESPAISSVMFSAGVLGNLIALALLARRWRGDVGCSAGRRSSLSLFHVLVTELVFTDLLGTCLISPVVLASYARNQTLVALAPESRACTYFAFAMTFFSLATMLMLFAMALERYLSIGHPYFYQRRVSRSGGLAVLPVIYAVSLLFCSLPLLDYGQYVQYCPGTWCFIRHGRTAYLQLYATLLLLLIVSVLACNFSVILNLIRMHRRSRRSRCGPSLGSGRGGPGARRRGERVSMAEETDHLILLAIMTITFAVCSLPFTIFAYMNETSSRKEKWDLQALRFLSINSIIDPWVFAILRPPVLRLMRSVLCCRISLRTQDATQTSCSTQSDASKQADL

[6] = target: T3, Prostaglandin E2 receptor EP3 subtype (Homo sapiens, UniProt P43115); experiment: Inhibition of [3H]-PGE-2 binding to Prostanoid EP3 receptor
T3 sequence (P43115 whole entry): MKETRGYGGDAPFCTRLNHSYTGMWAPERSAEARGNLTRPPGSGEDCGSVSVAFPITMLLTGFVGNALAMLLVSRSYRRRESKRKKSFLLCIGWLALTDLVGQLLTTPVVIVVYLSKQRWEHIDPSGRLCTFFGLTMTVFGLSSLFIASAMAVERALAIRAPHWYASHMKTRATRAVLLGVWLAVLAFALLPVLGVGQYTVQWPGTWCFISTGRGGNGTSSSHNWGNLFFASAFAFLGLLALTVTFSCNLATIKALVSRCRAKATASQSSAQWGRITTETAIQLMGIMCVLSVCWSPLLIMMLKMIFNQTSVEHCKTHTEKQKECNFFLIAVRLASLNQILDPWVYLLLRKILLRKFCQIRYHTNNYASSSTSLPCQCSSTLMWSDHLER

[7] = target: Prostaglandin E2 receptor EP4 subtype (Homo sapiens, UniProt P35408); experiment: Inhibition of [3H]PGE-2 binding to Prostanoid EP4 receptor
Chain of Prostaglandin E2 receptor EP4 subtype (P35408 whole entry): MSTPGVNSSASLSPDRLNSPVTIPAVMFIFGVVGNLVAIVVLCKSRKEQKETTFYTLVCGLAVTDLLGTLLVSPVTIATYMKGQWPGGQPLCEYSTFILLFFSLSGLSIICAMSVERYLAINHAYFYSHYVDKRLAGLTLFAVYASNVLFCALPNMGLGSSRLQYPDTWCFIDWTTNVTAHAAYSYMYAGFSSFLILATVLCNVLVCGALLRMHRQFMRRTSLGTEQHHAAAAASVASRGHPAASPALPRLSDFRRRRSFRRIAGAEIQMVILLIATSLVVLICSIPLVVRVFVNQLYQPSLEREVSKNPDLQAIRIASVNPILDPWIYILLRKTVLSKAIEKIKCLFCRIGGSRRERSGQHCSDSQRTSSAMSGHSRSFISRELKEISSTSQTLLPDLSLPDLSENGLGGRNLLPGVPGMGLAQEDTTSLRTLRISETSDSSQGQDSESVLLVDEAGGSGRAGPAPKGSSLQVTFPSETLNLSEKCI

[8] = species: Canis familiaris; experiment: Inhibition of ADP-induced aggregation of dog platelets; format: functional; conditions: Canis lupus familiaris
[9] = species: Rattus norvegicus; experiment: Inhibition of ADP-induced aggregation of rat platelets; format: functional, organism-based
[10] = Inhibition of ADP-induced aggregation of monkey platelets; format: functional; conditions: Cercopithecidae
[11] = Maximum (Peak) plasma drug concentration after single-dose administration at a dose of 1 (mg/kg) in rat; format: ADME, organism-based; design: dose 1 mg/kg
[12] = Elimination half-life after peroral administration at a dose of 0.32 (mg/kg) in rat; format: ADME, organism-based; conditions: in vivo, po
[13] = target: Prostacyclin receptor (Homo sapiens, UniProt P43119); experiment: Inhibition of [3H]-Iloprost binding to human Prostanoid IP receptor
Chain of Prostacyclin receptor (P43119 whole entry): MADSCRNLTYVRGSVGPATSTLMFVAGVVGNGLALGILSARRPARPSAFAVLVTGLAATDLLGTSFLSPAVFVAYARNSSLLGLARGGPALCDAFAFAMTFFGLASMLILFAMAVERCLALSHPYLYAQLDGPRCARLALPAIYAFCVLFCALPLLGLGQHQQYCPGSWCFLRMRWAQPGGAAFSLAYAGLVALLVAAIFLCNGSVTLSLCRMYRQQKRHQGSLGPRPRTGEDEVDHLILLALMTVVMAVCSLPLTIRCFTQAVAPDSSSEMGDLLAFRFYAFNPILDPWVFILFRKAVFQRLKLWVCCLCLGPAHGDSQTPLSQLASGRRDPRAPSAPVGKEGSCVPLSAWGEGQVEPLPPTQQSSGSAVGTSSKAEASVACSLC

[14] = target: T4, Thromboxane A2 receptor (Homo sapiens, UniProt P21731); experiment: Inhibition of [3H]SQ-29,548 binding to human Prostanoid TP receptor
T4 sequence (P21731 whole entry): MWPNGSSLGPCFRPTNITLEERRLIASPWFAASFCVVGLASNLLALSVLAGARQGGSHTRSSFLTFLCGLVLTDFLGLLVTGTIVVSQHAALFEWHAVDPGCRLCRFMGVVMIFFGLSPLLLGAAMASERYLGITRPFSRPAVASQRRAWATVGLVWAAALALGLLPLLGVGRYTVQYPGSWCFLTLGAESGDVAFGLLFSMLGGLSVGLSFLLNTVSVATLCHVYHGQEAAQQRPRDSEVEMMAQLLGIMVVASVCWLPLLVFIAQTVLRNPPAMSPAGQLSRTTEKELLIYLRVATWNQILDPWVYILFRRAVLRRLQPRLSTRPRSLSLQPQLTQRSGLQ

[15] = Area Under Plasma concentration-time curve after peroral administration at a dose of 1 (mg/kg) in rat; format: ADME, organism-based; conditions: po
[16] = Total body clearance of drug from the plasma after i.v. administration at a dose of 1 (mg/kg) in rat; format: ADME, organism-based; conditions: iv, read-out: CLtot
[17] = Bioavailability of the drug after […] administration at a dose of 1 (mg/kg) in rat; format: ADME, organism-based; conditions: in vivo, iv, read-out: Ba
[18] = test system: Rattus norvegicus; experiment: Effective dose for in vivo activity in D-GalN/LPS-induced rat hepatic injury model; format: functional
[19] = Maximum (Peak) plasma drug concentration after single-dose administration at a dose of 0.32 (mg/kg) in rat; format: ADME, organism-based; design: dose 0.32 mg/kg
[20] = Bioavailability of the drug after […] administration at a dose of 0.32 (mg/kg) in rat; format: ADME, organism-based; conditions: in vivo, iv, read-out: Ba
[21] = Area Under Plasma concentration-time curve after peroral administration at a dose of 0.32 (mg/kg) in rat; format: ADME, organism-based; conditions: po
[22] = Total body clearance of drug from the plasma after i.v. administration at a dose of 0.32 (mg/kg) in rat; format: ADME, organism-based; conditions: iv, read-out: CLtot

SMILES: O=C(O)COc1cccc(C[C@@H]2CCCC(O)=C2c2nc(-c3ccccc3)c(-c3ccccc3)o2)c1
IC50 [1]: 116 nM

SMILES: O=C(O)COc1cccc(C[C@@H]2CCC=CC2(O)c2nc(-c3ccccc3)c(-c3ccccc3)o2)c1 (stereo not given in full)
IC50 [1]: 98 nM

SMILES: O=C([O-])COc1cccc(C[C@@H]2CCCC=C2c2nc(-c3ccccc3)c(-c3ccccc3)o2)c1.[Na+]
IC50 [10]: 188 nM | ED50 [18]: 0.032 mg/kg | Cmax [19]: 16.4 ng/mL | half-life [12]: 6.6 h | bioavailability [20]: 50%

More lines, in order of falling IC50 [1], values ahead:

AUC [21]: 42.5 ng·h/mL | IC50 [9]: 2800 nM | IC50 [1]: 56 nM | Cmax [19]: 45.2 ng/mL | half-life [12]: 17 h | Ki [13]: 41 nM | clearance [22]: 9.19 mL/min/kg | bioavailability [20]: 78%
SMILES: O=C([O-])COc1cccc(C[C@@H]2CCC=C2c2nc(-c3ccccc3)c(-c3ccccc3)o2)c1.[Na+]
ED50 [18]: 1 mg/kg

IC50 [1]: 14 nM
SMILES: O=C(O)COc1cccc(C[C@@H]2CCCC3OC32c2nc(-c3ccccc3)c(-c3ccccc3)o2)c1 (stereo not given in full)

IC50 [1]: 12 nM
SMILES: O=C(O)COc1cccc(C[C@@H]2CCC[C@H]3O[C@@]23c2nc(-c3ccccc3)c(-c3ccccc3)o2)c1

Ki [2]: 2900 nM | Ki [3]: > 10000 nM | Ki [4]: > 10000 nM | Ki [5]: 1400 nM | Ki [6]: 3200 nM | Ki [7]: 7200 nM | IC50 [8]: 1470 nM | IC50 [9]: 300 nM | IC50 [1]: 5.8 nM | IC50 [10]: 12 nM | Cmax [11]: 67.9 ng/mL | half-life [12]: 26.9 h | Ki [13]: 6.1 nM | Ki [14]: 930 nM | AUC [15]: 168 ng·h/mL | clearance [16]: 18.6 mL/min/kg | bioavailability [17]: 20%
SMILES: O=C([O-])COc1cccc(C[C@@H]2CCC[C@@H]3O[C@]23c2nc(-c3ccccc3)c(-c3ccccc3)o2)c1.[Na+]
